According to ChEMBL document CHEMBL4038351, “Structure-Guided Development of Covalent and Mutant-Selective Pyrazolopyrimidines to Target T790M Drug Resistance in Epidermal Growth Factor Receptor” (J Med Chem, 2017):
pEC50, pIC50: −log10 of the molar value. In brackets after ≈: the same amount, converted by molar mass. Activity calls are given as the source filed them. No cut-off for these calls is given here.

Key:
NCI-H1975 [1] = test: cells; assay type: functional, cell-based; details: Homo sapiens
A549 [2] = test: cells; assay type: ADME, cell-based; details: Homo sapiens
[3] = Kinetic solubility in Hepes buffer at 500 uM at pH 7.4 after 90 mins; assay type: physicochemical; details: read-out: Kinetic_solubility
[4] = Metabolic stability in mouse plasma at 5 uM incubated for 1 hr by LC-MS method; assay type: ADME, cell-free; details: read-out: Stability
[5] = Apparent permeability across apical to basolateral side in human Caco2 cells at 5 uM incubated for 2 hrs; assay type: ADME, cell-based, Caco-2; details: Caco-2
HCC827 [6] = test: cells; assay type: functional, cell-based; details: Homo sapiens
[7] = Permeability of the compound at 500 uM incubated for 20 hrs by PAMPA; assay type: physicochemical
in vitro [8] = details: human, liver microsomes
[9] = Fraction unbound in mouse 100% plasma at 5 uM incubated for 6 hrs by LC-MS method; assay type: ADME, cell-free
in vitro [10] = details: mouse, liver microsomes
[11] = Apparent permeability across basolateral to apical side in human Caco2 cells at 5 uM incubated for 2 hrs; assay type: ADME, cell-based, Caco-2; details: Caco-2
[12] = Metabolic stability in human plasma at 5 uM incubated for 1 hr by LC-MS method; assay type: ADME, cell-free; details: read-out: Stability
A-431 [13] = test: cells; assay type: ADME, cell-based; details: Homo sapiens
A549 [14] = test: Antiproliferative activity against human A549 cells harboring KRAS-G12S mutant at 30 uM incubated for 96 hrs measured on day 5 by CellTiterGlo assay; assay type: cell-based; details: a549, 96 h
[15] = biological target: Epidermal growth factor receptor (Homo sapiens, UniProt P00533)
[16] = system: Epidermal growth factor receptor (Homo sapiens), P00533 [L858R,T790M]; test: Covalent binding affinity to human recombinant GST-tagged EGFR L858R/T790M double mutant expressed in baculovirus expression system by mass spectrometry
[17] = biological target: Epidermal growth factor receptor (Homo sapiens, UniProt P00533, L858R/T790M)
[18] = Half life in RjOrl:SWISS (CD1) mouse plasma at 20 mg/kg, ip; assay type: ADME, organism-based
[19] = Cmax in RjOrl:SWISS (CD1) mouse plasma at 20 mg/kg, po administered via gavage; assay type: ADME, organism-based; set-up: dose 20 mg/kg, route oral
[20] = AUC in RjOrl:SWISS (CD1) mouse plasma at 2 mg/kg, iv; assay type: ADME, organism-based
Mus musculus [21] = test: Bioavailability in RjOrl:SWISS (CD1) mouse plasma at 20 mg/kg, ip; assay type: ADME, organism-based; details: in vivo
[22] = Ratio of total Cmax in RjOrl:SWISS (CD1) mouse plasma at 20 mg/kg, ip to EC50 for antiproliferative activity against human NCI-H1975 cells harboring EGFR-L858R/T790M double mutant
[23] = Initial concentration in RjOrl:SWISS (CD1) mouse plasma at 2 mg/kg, iv; assay type: ADME, organism-based
Mus musculus [24] = test: Toxicity in RjOrl:SWISS (CD1) mouse at 2 mg/kg, iv; assay type: organism-based; details: in vivo
[25] = biological target: Epidermal growth factor receptor (Homo sapiens, UniProt P00533, L858R)
Mus musculus [26] = test: Toxicity in RjOrl:SWISS (CD1) mouse at 20 mg/kg, po administered via gavage; assay type: organism-based; details: in vivo
[27] = Clearance in RjOrl:SWISS (CD1) mouse plasma at 2 mg/kg, iv; assay type: ADME, organism-based
[28] = Half life in RjOrl:SWISS (CD1) mouse plasma at 20 mg/kg, po administered via gavage; assay type: ADME, organism-based
Mus musculus [29] = test: Time duration during which total plasma concentration stays above in vitro EC50 for human NCI-H1975 cells harboring EGFR-L858R/T790M double mutant in RjOrl:SWISS (CD1) mouse at 20 mg/kg, ip
in vitro [30] = details: human, Caco-2
[31] = Volume of distribution at steady state in RjOrl:SWISS (CD1) mouse plasma at 2 mg/kg, iv; assay type: ADME, organism-based; details: read-out: Vdss
[32] = Half life in RjOrl:SWISS (CD1) mouse plasma at 2 mg/kg, iv; assay type: ADME, organism-based
[33] = Total Cmax in RjOrl:SWISS (CD1) mouse plasma at 20 mg/kg, ip; assay type: ADME, organism-based; set-up: dose 20 mg/kg, route intraperitoneal
[34] = Ratio of free Cmax in RjOrl:SWISS (CD1) mouse plasma at 20 mg/kg, ip to EC50 for antiproliferative activity against human NCI-H1975 cells harboring EGFR-L858R/T790M double mutant
[35] = Oral bioavailability in RjOrl:SWISS (CD1) mouse plasma at 20 mg/kg administered via gavage; assay type: ADME, organism-based
Mus musculus [36] = test: Toxicity in RjOrl:SWISS (CD1) mouse at 20 mg/kg, ip; assay type: organism-based; details: in vivo
Mus musculus [37] = test: Free Cmax in RjOrl:SWISS (CD1) mouse plasma at 20 mg/kg, ip; assay type: ADME, organism-based; details: in vivo
[38] = AUC in RjOrl:SWISS (CD1) mouse plasma at 20 mg/kg, ip; assay type: ADME, organism-based
Mus musculus [39] = test: Time duration during which free plasma concentration stays above in vitro EC50 for human NCI-H1975 cells harboring EGFR-L858R/T790M double mutant in RjOrl:SWISS (CD1) mouse at 20 mg/kg, ip
[40] = AUC in RjOrl:SWISS (CD1) mouse plasma at 20 mg/kg, po administered via gavage; assay type: ADME, organism-based
A-431 [41] = test: Antiproliferative activity against human A431 cells expressing wild type EGFR at 30 uM incubated for 96 hrs measured on day 5 by CellTiterGlo assay; assay type: cell-based; details: a-431, 96 h
NCI-H1975 [42] = test: Antiproliferative activity against human NCI-H1975 cells harboring EGFR-L858R/T790M double mutant at 30 uM incubated for 96 hrs measured on day 5 by CellTiterGlo assay; assay type: functional, cell-based
HCC827 [43] = test: Antiproliferative activity against human HCC827 cells harboring EGFR-delE746_A750 mutant at 30 uM incubated for 96 hrs measured on day 5 by CellTiterGlo assay; assay type: functional, cell-based

In the case of `C=CC(=O)Nc1cc(Nc2nccc(-c3cn(C)c4ccccc34)n2)c(OC)cc1N(C)CCN(C)C` [OSIMERTINIB], the pEC50 (NCI-H1975 [1]) was […], the pEC50 (A549 [2]) was 5.74 and the solubility kinetic at 1.5 h, 500 µM [3] was 265 µM (≈ 132 µg/mL). It also gave a remaining at 1 h, 5 µM [4] of 100%, a Papp A→B at 2 h, 5 µM [5] of 0.084 ×10⁻⁶ cm/s and a pEC50 (HCC827 [6]) greater than 7.85. It also gave a permeability [7] of 112%, a microsomal CLint at 50 min, 3 µM (in vitro [8]) of 4.1 µL/min/mg and a fraction unbound at 6 h, 5 µM [9] of 0.03. For the same molecule, the microsomal CLint at 50 min, 3 µM (in vitro [10]) was 51 µL/min/mg, the Papp B→A at 2 h, 5 µM [11] was 0.06 ×10⁻⁶ cm/s and the remaining at 1 h, 5 µM [12] was 100%.

For `C=CC(=O)N1CCC[C@@H](n2nc(-c3cccc4ccccc34)c3c(N)ncnc32)C1`, the pEC50 (NCI-H1975 [1]) was 6.31, the solubility kinetic at 1.5 h, 500 µM [3] was 38 µM (≈ 15.1 µg/mL) and the pEC50 (A-431 [13]) was 4.53. The remaining at 1 h, 5 µM [4] was 90%, the pEC50 (HCC827 [6]) was 6.30 and the permeability [7] was 82%. For the same molecule, the Activity (A549 [14]) was “Non-Toxic”, the microsomal CLint at 50 min, 3 µM (in vitro [8]) was 770 µL/min/mg and the fraction unbound at 6 h, 5 µM [9] was 0.15. For the same molecule, the pIC50 [15] was 7.22, the microsomal CLint at 50 min, 3 µM (in vitro [10]) was 2770 µL/min/mg and the Activity [16] was “Active”. For the same molecule, the pIC50 [17] was 8.70 and the remaining at 1 h, 5 µM [12] was 100%.

In the case of `C=CC(=O)N1CCC[C@@H](n2nc(-c3cn(C)c4ccccc34)c3c(N)ncnc32)C1`, the half-life [18] was 14.4 min, the Cmax [19] was 38 ng/mL and the AUC [20] was 121 ng·h/mL. The F (Mus musculus [21]) was 156%, the Ratio [22] was 50 and the pEC50 (NCI-H1975 [1]) was 6.64. It also gave a pEC50 (A549 [2]) of 4.63, a C0 [23] of 138 ng/mL and a solubility kinetic at 1.5 h, 500 µM [3] of 364 µM (≈ 146 µg/mL). The Activity (Mus musculus [24]) was “Non-Toxic”, the pEC50 (A-431 [13]) was 5.17 and the remaining at 1 h, 5 µM [4] was 100%. The pIC50 [25] was 8.70, the Papp A→B at 2 h, 5 µM [5] was 0.3 ×10⁻⁶ cm/s and the Activity (Mus musculus [26]) was “Non-Toxic”. It also gave a pEC50 (HCC827 [6]) of 7.05, a clearance [27] of 277 mL/min/kg and a half-life [28] of 35.4 min. The permeability [7] was 66%, the Time (Mus musculus [29]) was 75 min and the microsomal CLint at 50 min, 3 µM (in vitro [8]) was 462 µL/min/mg. The fraction unbound at 6 h, 5 µM [9] was 0.12, the efflux ratio at 2 h, 5 µM (in vitro [30]) was 1 and the pIC50 [15] was 7.40. For the same molecule, the microsomal CLint at 50 min, 3 µM (in vitro [10]) was 1980 µL/min/mg, the Vd [31] was 12.4 L/kg and the half-life [32] was 36 min. The Cmax [33] was 4540 ng/mL, the Ratio [34] was 6 and the bioavailability [35] was 2.4%. For the same molecule, the Activity [16] was “Active”, the Activity (Mus musculus [36]) was “Non-Toxic” and the pIC50 [17] was 8.52. For the same molecule, the Papp B→A at 2 h, 5 µM [11] was 0.29 ×10⁻⁶ cm/s, the fCmax (Mus musculus [37]) was 1.36 µM and the remaining at 1 h, 5 µM [12] was 95%. The AUC [38] was 1890 ng·h/mL, the Time (Mus musculus [39]) was 30 min and the AUC [40] was 29 ng·h/mL.

Work on `C=CC(=O)N1CCC[C@@H](n2nc(-c3ccc4ccccc4c3)c3c(N)ncnc32)C1` yielded a pEC50 (NCI-H1975 [1]) of 6.85, a pEC50 (A549 [2]) of 4.94 and a solubility kinetic at 1.5 h, 500 µM [3] of 248 µM (≈ 98.8 µg/mL). The pEC50 (A-431 [13]) was 5.44, the remaining at 1 h, 5 µM [4] was 86% and the pIC50 [25] was 9.00. It also gave a Papp A→B at 2 h, 5 µM [5] of 0.51 ×10⁻⁶ cm/s, a pEC50 (HCC827 [6]) greater than 7.85 and a permeability [7] of 73%. The microsomal CLint at 50 min, 3 µM (in vitro [8]) was 770 µL/min/mg, the fraction unbound at 6 h, 5 µM [9] was 0.02 and the efflux ratio at 2 h, 5 µM (in vitro [30]) was 0.3. The pIC50 [15] was 7.70, the microsomal CLint at 50 min, 3 µM (in vitro [10]) was 2310 µL/min/mg and the Activity [16] was “Active”. The pIC50 [17] was greater than 9.00, the Papp B→A at 2 h, 5 µM [11] was 0.13 ×10⁻⁶ cm/s and the remaining at 1 h, 5 µM [12] was 94%.

With `CCC(=O)N1CCC[C@@H](n2nc(-c3ccccc3)c3c(N)ncnc32)C1` the pIC50 [25] was 5.33, the Activity (A-431 [41]) was “Non-Toxic” and the Activity (NCI-H1975 [42]) was “inactive”. For the same molecule, the Activity (HCC827 [43]) was “inactive”, the Activity (A549 [14]) was “Non-Toxic” and the pIC50 [15] was 5.14. The pIC50 [17] was less than 5.00.

In the case of `CCC(=O)N1CCC[C@@H](n2nc(-c3cccc(C(F)(F)F)c3)c3c(N)ncnc32)C1`, the pIC50 [25] was less than 5.00, the Activity (A-431 [41]) was “Non-Toxic” and the Activity (NCI-H1975 [42]) was “inactive”. The Activity (HCC827 [43]) was “inactive”, the Activity (A549 [14]) was “Non-Toxic” and the pIC50 [15] was less than 5.00. It also gave a pIC50 [17] of less than 5.00.
